Results as given in US6218406A, “Farnesyl transferase inhibitors, their preparation, the pharmaceutical compositions which contain them and their use in the preparation of medicaments” (Aventis Pharma S.A., priority 1996, dated 2001).

The molecules below were run against farnesyl transferase (Homo sapiens, UniProt P49354+P49356) (assay: Farnesyl transferase inhibition, [3H]-farnesylation of biotinylated K-ras C-terminal peptide (SPA assay)). Settings: In vitro inhibitory activity (K-Ras) IC50, K-Ras substrate; 60 min at 37° C.; mean of two IC50 values.
Assay type: biochemical

Row | SMILES | IC50
1 | COc1ccccc1CC(=O)N1C[C@H]2[C@@]3(c4ccc(C)cc4)CC[C@H](c4ccccc43)[C@@]2(C(=O)O)C1 (single isomer, unassigned) [Example 30, dextrorotatory enantiomer of (3aRS,4SR,9SR,9aRS)-4,9-ethano-2-[2-(2-methoxyphenyl)acetyl]-9-(4-methylphenyl)-2,3,3a,4,9,9a-hexahydro-1H-benzo[f]isoindole-3a-carboxylic Acid] | 74 nM
2 | COc1ccccc1CC(=O)N1C[C@H]2[C@@]3(c4cccc(C)c4)CC[C@H](c4ccccc43)[C@@]2(C(=O)O)C1 (relative stereo) [Example 9, (3aRS,4SR,9SR,9aRS)-4,9-ethano-2-[(2-methoxyphenyl)acetyl]-9-(3-methylphenyl)-2,3,3a,4,9,9a-hexahydro-1H-benzo[f]isoindole-3a-carboxylic Acid] | 55 nM
3 | COc1ccccc1CC(=O)N1C[C@H]2[C@@]3(c4ccc(C)cc4)CC[C@H](c4ccccc43)[C@@]2(C(=O)O)C1 (relative stereo) [Example 5, (3aRS,4SR,9SR,9aRS)-4,9-ethano-2-[(2-methoxyphenyl)acetyl]-9-(4-methylphenyl)-2,3,3a,4,9,9a-hexahydro-1H-benzo[f]isoindole-3a-carboxylic Acid] | 50 nM

Same assay, conditions: K-Ras substrate; 60 min at 37° C.; mean of two IC50 values; read-out: In vitro inhibitory activity (K-Ras) IC50

Row | SMILES | IC50
4 | C=C(C(=O)N1C[C@H]2[C@@]3(c4ccc(C)cc4)CC[C@H](c4ccccc43)[C@@]2(C(=O)NCc2ccccc2)C1)c1ccccc1OC (relative stereo) [Example 13, (3aRS,4SR, 9SR,9aRS)-3a-N-benzylcarbamoyl-4,9-ethano-2-[2-(2-methoxyphenyl)propenoyl]-9-(4-methylphenyl)-2,3,3a,4,9,9a-hexahydro-1H-benzo[f]isoindole] | 140 nM
5 | C=C(C(=O)N1C[C@@H]2[C@]3(c4ccc(C)cc4)CC[C@@H](c4ccccc43)[C@]2(C(=O)NOC)C1)c1ccccc1OC (racemic) [Example 21, Methyl (3aRS,4SR,9SR,9aRS)-4,9-ethano-2-[2-(2-methoxyphenyl)propenoyl]-9-(4-methylphenyl)-2,3,3a,4,9,9a-hexahydro-1H-benzo[f]isoindole-3a-hydroxamate] | 111 nM
6 | C=C(C(=O)N1C[C@@H]2[C@]3(c4ccc(C(F)(F)F)cc4)CC[C@@H](c4ccccc43)[C@]2(C(=O)NNc2ccccc2)C1)c1ccccc1OC (relative stereo) [Example 44, (3aRS,4SR,9SR,9aRS)-4,9-ethano-2-[2-(2-methoxyphenyl)propenoyl]-9-[4-(trifluoromethyl)phenyl]-2,3,3a,4,9,9a-hexahydro-1H-benzo[f]isoindole-3a-N'-phenylcarbohydrazide] | 369 nM
7 | C=C(C(=O)N1C[C@@H]2[C@]3(c4ccc5c(c4)OCCO5)CC[C@@H](c4ccccc43)[C@]2(C(=O)NCc2cccs2)C1)c1ccccc1OC (relative stereo) [Example 36, (3aRS,4SR,9SR,9aRS)-9-(2,3-dihydro-1,4-benzodioxin-6-yl)-4,9-ethano-2-[2-(2-methoxyphenyl)propenoyl]-2,3,3a,4,9,9a-hexahydro-1H-benzo[f]isoindole-3a-N-(2-thienylmethyl)carboxamide] | 120 nM
8 | C=C(C(=O)N1C[C@@H]2[C@]3(c4ccc5c(c4)OCCO5)CC[C@@H](c4ccccc43)[C@]2(C(=O)NCc2cccnc2)C1)c1ccccc1OC (single isomer, unassigned) [Example 35, levorotatory enantiomer of (3aRS,4SR,9SR,9aRS)-9-(2,3-dihydro-1,4-benzodioxin-6-yl)-4,9-ethano-2-[2-(2-methoxyphenyl)propenoyl]-2,3,3a,4,9,9a-hexahydro-1H-benzo[f]isoindole-3a-N-(3-pyridylmethyl)carboxamide] | 84 nM
9 | C=C(C(=O)N1C[C@@H]2[C@]3(c4ccc(C)cc4)CC[C@@H](c4ccccc43)[C@]2(C(=O)NOCc2ccccc2)C1)c1ccccc1OC (racemic) [Example 14, benzyl (3aRS,4SR,9SR,9aRS)-4,9-ethano-2-[2-(2-methoxyphenyl)propenoyl]-9-(4-methylphenyl)-2,3,3a,4,9,9a-hexahydro-1H-benzo[f]isoindole-3a-hydroxamate] | 210 nM
10 | C=C(C(=O)N1C[C@H]2[C@@]3(c4ccc5c(c4)OCCO5)CC[C@H](c4ccccc43)[C@@]2(C(=O)NCc2cccnc2)C1)c1ccccc1OC (single isomer, unassigned) [Example 34, dextrorotatory enantiomer of (3aRS,4SR,9SR,9aRS)-9-(2,3-dihydro-1,4-benzodioxin-6-yl)-4,9-ethano-2-[2-(2-methoxyphenyl)propenoyl]-2,3,3a,4,9,9a-hexahydro-1H-benzo[f]isoindole-3a-N-(3-pyridylmethyl)carboxamide] | < 20 nM

The next lines start with the values.

Row | IC50 | SMILES
11 | 98 nM | C=C(C(=O)N1C[C@@H]2[C@]3(c4ccc(C)c(C)c4)CC[C@@H](c4ccccc43)[C@]2(C(=O)O)C1)c1ccccc1OC (racemic) [Example 72, (3aRS,4SR,9SR,9aRS)-9-(3,4-dimethylphenyl)-4,9-ethano-2-[2-(2-methoxyphenyl)propenoyl]-2,3,3a,4,9,9a-hexahydro-1H-benzo[f]isoindole-3a-carboxylic Acid]
12 | 53 nM | C=C(C(=O)N1C[C@@H]2[C@]3(c4cccc(C)c4)CC[C@@H](c4ccccc43)[C@]2(C(=O)O)C1)c1ccccc1OC (racemic) [Example 69, (3aRS,4SR,9SR,9aRS)-4,9-ethano-2-[2-(2-methoxyphenyl)propenoyl]-9-(3-methylphenyl)-2,3,3a,4,9,9a-hexahydro-1H-benzo[f]isoindole-3a-carboxylic Acid]
13 | 431 nM | C=C(C(=O)N1C[C@@H]2[C@]3(c4cccc(C)c4)CC[C@@H](c4ccccc43)[C@]2(C(=O)OC)C1)c1ccccc1OC (racemic) [Example 68, methyl (3aRS,4SR,9SR,9aRS)-4,9-ethano-2-[2-(2-methoxyphenyl)propenoyl]-9-(3-methylphenyl)-2,3,3a,4,9,9a-hexahydro-1H-benzo[f]isoindole-3a-carboxylate]
14 | 178 nM | C=C(C(=O)N1C[C@@H]2[C@]3(c4ccc5c(c4)CCO5)CC[C@@H](c4ccccc43)[C@]2(C(=O)OC)C1)c1ccccc1OC (racemic) [Example 61, methyl (3aRS,4SR,9SR,9aRS)-9-(2,3-dihydrobenzofuran-5-yl)-4,9-ethano-2-[2-(2-methoxyphenyl)propenoyl]-2,3,3a,4,9,9a-hexahydro-1H-benzo[f]isoindole-3a-carboxylate]
15 | 280 nM | C=C(C(=O)N1C[C@@H]2[C@]3(c4ccc(C(C)C)cc4)CC[C@@H](c4ccccc43)[C@]2(C(=O)O)C1)c1ccccc1OC (racemic) [Example 57, (3aRS,4SR,9SR,9aRS)-4,9-ethano-9-(4-isopropylphenyl)-2-[2-(2-methoxyphenyl)propenoyl]-2,3,3a,4,9,9a-hexahydro-1H-benzo[f]isoindole-3a-carboxylic Acid]
16 | 5 nM | C=C(C(=O)N1C[C@@H]2[C@]3(c4cccc(Cl)c4)CC[C@@H](c4ccccc43)[C@]2(C(=O)O)C1)c1ccccc1OC (racemic) [Example 89, (3aRS,4SR,9SR,9aRS)-9-(3-chlorophenyl)-4,9-ethano-2-[2-(2-methoxyphenyl)propenoyl]-2,3,3a,4,9,9a-hexahydro-1H-benzo[f]isoindole-3a-carboxylic Acid]
17 | 28 nM | C=C(C(=O)N1C[C@H]2[C@@]3(c4cccc(N(C)C)c4)CC[C@H](c4ccccc43)[C@@]2(C(=O)O)C1)c1ccccc1OC (relative stereo) [Example 92, (3aRS,4SR,9SR,9aRS)-9-(3-N,N-dimethylaminophenyl)-4,9-ethano-2-[2-(2-methoxyphenyl)propenoyl]-2,3,3a,4,9,9a-hexahydro-1H-benzo[f]isoindole-3a-carboxylic Acid]
18 | 36 nM | C=C(C(=O)N1C[C@@H]2[C@]3(c4ccc5c(c4)CCO5)CC[C@@H](c4ccccc43)[C@]2(C(=O)O)C1)c1ccccc1OC (racemic) [Example 62, (3aRS,4SR,9SR,9aRS)-9-(2,3-dihydrobenzofuran-5-yl)-4,9-ethano-2-[2-(2-methoxyphenyl)propenoyl]-2,3,3a,4,9,9a-hexahydro-1H-benzo[f]isoindole-3a-carboxylic Acid]
19 | 335 nM | C=C(C(=O)N1C[C@@H]2[C@]3(c4ccc(C)c(C)c4)CC[C@@H](c4ccccc43)[C@]2(C(=O)OC)C1)c1ccccc1OC (racemic) [Example 71, methyl (3aRS,4SR,9SR,9aRS)-9-(3,4-dimethylphenyl)-4,9-ethano-2-[2-(2-methoxyphenyl)propenoyl]-2,3,3a,4,9,9a-hexahydro-1H-benzo[f]isoindole-3a-carboxylate]
20 | 379 nM | C=C(C(=O)N1C[C@@H]2[C@]3(c4ccc(Cl)c(F)c4)CC[C@@H](c4ccccc43)[C@]2(C(=O)OC)C1)c1ccccc1OC (racemic) [Example 66, methyl (3aRS,4SR,9SR,9aRS)-9-(4-chloro-3-fluorophenyl)-4,9-ethano-2-[2-(2-methoxyphenyl)-propenoyl]-2,3,3a,4,9,9a-hexahydro-1H-benzo[f]isoindole-3a-carboxylate]
21 | 18 nM | C=C(C(=O)N1CC2C3(c4ccc(OC)cc4)CCC(c4ccccc43)C2(C(=O)NC(C(=O)O)c2ccccc2)C1)c1ccccc1OC (stereo not drawn) [Example 81, (RS)- and (SR)-2-{(3aRS,4SR,9SR,9aRS)-4,9-ethano-9-(4-methoxyphenyl)-2-[2-(2-methoxyphenyl)propenoyl]-2,3,3a,4,9,9a-hexahydro-1H-benzo[f]isoindole-3a-carbonylamino}phenylacetic Acids]
22 | 20 nM | C=C(C(=O)N1C[C@@H]2[C@]3(c4ccc(Cl)cc4)CC[C@@H](c4ccccc43)[C@]2(C(=O)O)C1)c1ccccc1OC (racemic) [Example 53, (3aRS,4SR,9SR,9aRS)-9-(4-chlorophenyl)-4,9-ethano-2-[2-(2-methoxyphenyl)propenoyl]-2,3,3a,4,9,9a-hexahydro-1H-benzo[f]isoindole-3a-carboxylic Acid]
23 | 508 nM | C=C(C(=O)N1C[C@@H]2[C@]3(c4cccc(F)c4)CC[C@@H](c4ccccc43)[C@]2(C(=O)OC)C1)c1ccccc1OC (racemic) [Example 85, methyl (3aRS,4SR,9SR,9aRS)-4,9-ethano-9-(3-fluorophenyl)-2-[2-(2-methoxyphenyl)propenoyl]-2,3,3a,4,9,9a-hexahydro-1H-benzo[f]isoindole-3a-carboxylate]
